Consider 36 compounds from patent US10487068B2, “Pyridazine derivatives as RORc modulators” (Genentech, Inc., priority 2015, dated 2019).

For the assay, the target named is T1, RORc ligand binding domain (Homo sapiens, UniProt P51449).
T1 sequence (P51449 269-508 limits assumed): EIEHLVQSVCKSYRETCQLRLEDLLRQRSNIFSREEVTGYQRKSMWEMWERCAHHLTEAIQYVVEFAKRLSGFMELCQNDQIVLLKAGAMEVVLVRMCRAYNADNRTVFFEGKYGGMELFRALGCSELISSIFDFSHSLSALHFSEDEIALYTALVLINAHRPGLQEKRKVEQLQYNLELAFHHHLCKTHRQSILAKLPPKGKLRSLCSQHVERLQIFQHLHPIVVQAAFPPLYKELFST
Nature of the assay: In Vitro RORc Ligand Binding Assay. Particulars: RORc IC50, radioligand 25-[3H]hydroxycholesterol 6 nM; 0.6 ug/mL RORc receptor; 3 h at 25° C.

Each structure is given as a SMILES string.

On to `CC(C)(O)CNS(=O)(=O)c1cccc([C@@]23CC[C@@H](c4cc(-c5c(F)cccc5F)nnc42)C3(C)C)n1` [Example 198, 6-((5R,8S)-3-(2,6-difluorophenyl)-9,9-dimethyl-5,6,7,8-tetrahydro-5,8-methanocinnolin-8-yl)-N-(2-hydroxy-2-methylpropyl)pyridine-2-sulfonamide], for which the IC50 came to 26.1 nM.
`CC1(C)[C@H]2CC[C@]1(c1cccc(S(=O)(=O)NC3(CO)COC3)n1)c1nnc(-c3c(F)cccc3F)cc12` [Example 199, 6-((5R,8S)-3-(2,6-difluorophenyl)-9,9-dimethyl-5,6,7,8-tetrahydro-5,8-methanocinnolin-8-yl)-N-(3-(hydroxymethyl)oxetan-3-yl)pyridine-2-sulfonamide] displayed an IC50 of 9.4 nM.
`C[C@@H](O)CNS(=O)(=O)c1cccc([C@@]23CC[C@@H](c4cc(-c5c(F)cccc5F)nnc42)C3(C)C)n1` [Example 200, 6-((5R,8S)-3-(2,6-difluorophenyl)-9,9-dimethyl-5,6,7,8-tetrahydro-5,8-methanocinnolin-8-yl)-N-((R)-2-hydroxypropyl)pyridine-2-sulfonamide] registered a concentration for half-maximal inhibition (IC50) of 11.7 nM.
In turn, `C[C@H](O)CNS(=O)(=O)c1cccc([C@@]23CC[C@@H](c4cc(-c5c(F)cccc5F)nnc42)C3(C)C)n1` [Example 201, 6-((5R,8S)-3-(2,6-difluorophenyl)-9,9-dimethyl-5,6,7,8-tetrahydro-5,8-methanocinnolin-8-yl)-N-((S)-2-hydroxypropyl)pyridine-2-sulfonamide] gave an IC50 of 33.4 nM.
The same measure for `CC1(C)[C@H]2CC[C@]1(c1cncc(-n3cc[nH]c3=O)n1)c1nnc(-c3c(F)cccc3F)cc12` [Example 202, 1-(6-((5R,8S)-3-(2,6-difluorophenyl)-9,9-dimethyl-5,6,7,8-tetrahydro-5,8-methanocinnolin-8-yl)pyrazin-2-yl)-1H-imidazol-2(3H)-one]: 10.8 nM; for `CC(C)(O)c1nnc(-c2cncc([C@@]34CC[C@@H](c5cc(-c6c(F)cccc6F)nnc53)C4(C)C)n2)[nH]1` [Example 203, 2-(5-(6-((5R,8S)-3-(2,6-difluorophenyl)-9,9-dimethyl-5,6,7,8-tetrahydro-5,8-methanocinnolin-8-yl)pyrazin-2-yl)-4H-1,2,4-triazol-3-yl)propan-2-ol]: 24.3 nM; for `CC1(C)[C@H]2CC[C@]1(c1cncc(NC(=O)NCCO)n1)c1nnc(-c3c(F)cccc3F)cc12` [Example 204, 1-(6-((5R,8S)-3-(2,6-difluorophenyl)-9,9-dimethyl-5,6,7,8-tetrahydro-5,8-methanocinnolin-8-yl)pyrazin-2-yl)-3-(2-hydroxyethyl)urea]: 74.6 nM.
Under `CC1(C)[C@H]2CC[C@]1(c1cncc(-c3cn[nH]c3)n1)c1nnc(-c3c(F)cccc3F)cc12` [Example 205] stands 10.4 nM.
For `CC1(C)[C@H]2CC[C@]1(c1cncc(-c3cnc(CO)o3)n1)c1nnc(-c3c(F)cccc3F)cc12` [Example 206, (5-(6-((5R,8S)-3-(2,6-difluorophenyl)-9,9-dimethyl-5,6,7,8-tetrahydro-5,8-methanocinnolin-8-yl)pyrazin-2-yl)oxazol-2-yl)methanol], the IC50 stood at 6.7 nM.
In turn, `CC1(C)[C@H]2CC[C@]1(c1cccc(-c3cnc(CO)o3)n1)c1nnc(-c3c(F)cccc3F)cc12` [Example 207, (5-(6-((5R,8S)-3-(2,6-difluorophenyl)-9,9-dimethyl-5,6,7,8-tetrahydro-5,8-methanocinnolin-8-yl)pyridin-2-yl)oxazol-2-yl)methanol] gave an IC50 of 3.8 nM.
Under `Cc1cn(-c2nccc([C@@]34CC[C@@H](c5cc(-c6c(F)cccc6F)nnc53)C4(C)C)n2)cn1` [Example 208] stands 3.6 nM.
In turn, `Cc1ncc(-c2cnc(C)c([C@@]34CC[C@@H](c5cc(-c6c(F)cccc6F)nnc53)C4(C)C)n2)o1` [Example 209, 5-(6-((5R,8S)-3-(2,6-difluorophenyl)-9,9-dimethyl-5,6,7,8-tetrahydro-5,8-methanocinnolin-8-yl)-5-methylpyrazin-2-yl)-2-methyloxazole] came in with an IC50 of 15.2 nM.
Under `CC1(C)[C@H]2CC[C@]1(c1cc(C#N)nc(C#N)c1)c1nnc(-c3c(F)cccc3F)cc12` [Example 210, 4-((5R,8S)-3-(2,6-difluorophenyl)-9,9-dimethyl-5,6,7,8-tetrahydro-5,8-methanocinnolin-8-yl)pyridine-2,6-dicarbonitrile] stands 114 nM.
The same measure for `CC1(C)[C@H]2CC[C@]1(c1ccnc(-n3cccn3)n1)c1nnc(-c3c(F)cccc3F)cc12` [Example 211]: 8.8 nM; for `Cc1ncn(-c2nccc([C@@]34CC[C@@H](c5cc(-c6c(F)cccc6F)nnc53)C4(C)C)n2)n1` [Example 212]: 28.1 nM; for `CC1(C)[C@H]2CC[C@]1(c1cccc(-c3ccn[nH]3)n1)c1nnc(-c3c(F)cccc3F)cc12` [Example 213]: 6.1 nM.
Under `CC(C)(O)c1nnc(-c2cccc([C@@]34CC[C@@H](c5cc(-c6c(F)cccc6F)nnc53)C4(C)C)n2)[nH]1` [Example 214, 2-(5-(6-((5R,8S)-3-(2,6-difluorophenyl)-9,9-dimethyl-5,6,7,8-tetrahydro-5,8-methanocinnolin-8-yl)pyridin-2-yl)-4H-1,2,4-triazol-3-yl)propan-2-ol] stands 30.5 nM; under `CC1(C)[C@H]2CC[C@]1(c1ccnc(-n3cc(CCO)cn3)n1)c1nnc(-c3c(F)cccc3F)cc12` [Example 215], 28.1 nM; under `CC1(C)[C@H]2CC[C@]1(c1cccc(-n3cnnc3)n1)c1nnc(-c3c(F)cccc3F)cc12` [Example 216], 12.7 nM.
With `CC1(C)[C@H]2CC[C@]1(c1cncc(F)c1)c1nnc(-c3c(F)cccc3F)cc12` [Example 217, (5R,8S)-3-(2,6-difluorophenyl)-8-(5-fluoropyridin-3-yl)-9,9-dimethyl-5,6,7,8-tetrahydro-5,8-methanocinnoline], the IC50 was determined as 7.4 nM.
Under `CC1(C)[C@H]2CC[C@]1(c1nc(C(=O)NCCO)ncc1F)c1nnc(-c3c(F)cccc3F)cc12` [Example 218] stands 60.7 nM.
The same measure for `CC1(C)[C@H]2CC[C@]1(c1ccnc(-n3cnc(CO)c3)n1)c1nnc(-c3c(F)cccc3F)cc12` [Example 219]: 6.7 nM; for `CC1(C)[C@H]2CC[C@]1(c1ccnc(-n3cnc(C#N)n3)n1)c1nnc(-c3c(F)cccc3F)cc12` [Example 220]: 25.3 nM; for `C[C@@H](O)c1nnc(-c2cccc([C@@]34CC[C@@H](c5cc(-c6c(F)cccc6F)nnc53)C4(C)C)n2)[nH]1` [Example 221, (R)-1-(5-(6-((5R,8S)-3-(2,6-difluorophenyl)-9,9-dimethyl-5,6,7,8-tetrahydro-5,8-methanocinnolin-8-yl)pyridin-2-yl)-4H-1,2,4-triazol-3-yl)ethanol]: 23.3 nM.
`C[C@H](O)c1nnc(-c2cccc([C@@]34CC[C@@H](c5cc(-c6c(F)cccc6F)nnc53)C4(C)C)n2)[nH]1` [Example 222, (S)-1-(5-(6-((5R,8S)-3-(2,6-difluorophenyl)-9,9-dimethyl-5,6,7,8-tetrahydro-5,8-methanocinnolin-8-yl)pyridin-2-yl)-4H-1,2,4-triazol-3-yl)ethanol] had an IC50 of 11 nM.
The compound `Cc1nnc(-c2ccnc([C@@]34CC[C@@H](c5cc(-c6c(F)cccc6F)nnc53)C4(C)C)c2)[nH]1` [Example 223] returned an IC50 of 62.3 nM.
Take `C[C@H](O)c1nnc(-c2cncc([C@@]34CC[C@@H](c5cc(-c6c(F)cccc6F)nnc53)C4(C)C)n2)[nH]1` [Example 224, (S)-1-(5-(6-((5R,8S)-3-(2,6-difluorophenyl)-9,9-dimethyl-5,6,7,8-tetrahydro-5,8-methanocinnolin-8-yl)pyrazin-2-yl)-4H-1,2,4-triazol-3-yl)ethanol]: the IC50 was 12.4 nM.
The same measure for `C[C@@H](O)c1nnc(-c2cncc([C@@]34CC[C@@H](c5cc(-c6c(F)cccc6F)nnc53)C4(C)C)n2)[nH]1` [Example 225, (R)-1-(5-(6-((5R,8S)-3-(2,6-difluorophenyl)-9,9-dimethyl-5,6,7,8-tetrahydro-5,8-methanocinnolin-8-yl)pyrazin-2-yl)-4H-1,2,4-triazol-3-yl)ethanol]: 21 nM; for `CC1(C)[C@H]2CC[C@]1(c1cc(=O)[nH]cn1)c1nnc(-c3c(F)cccc3F)cc12` [Example 226, 6-((5R,8S)-3-(2,6-difluorophenyl)-9,9-dimethyl-5,6,7,8-tetrahydro-5,8-methanocinnolin-8-yl)pyrimidin-4(3H)-one]: 363 nM.
The same measure for `Cc1nc(C#N)ncc1[C@@]12CC[C@@H](c3cc(-c4c(F)cccc4F)nnc31)C2(C)C` [Example 227, 5-((5R,8S)-3-(2,6-difluorophenyl)-9,9-dimethyl-5,6,7,8-tetrahydro-5,8-methanocinnolin-8-yl)-4-methylpyrimidine-2-carbonitrile]: 717 nM; for `Cc1cc([C@@]23CC[C@@H](c4cc(-c5c(F)cccc5F)nnc42)C3(C)C)nc(C#N)n1` [Example 228]: 15.3 nM.
Under `CC1(C)[C@H]2CC[C@]1(c1cccc(-c3cn[nH]c3)n1)c1nnc(-c3c(F)cccc3F)cc12` [Example 229] stands 3 nM.
For `CC1(C)[C@H]2CC[C@]1(c1nc(C(=O)NCCO)ncc1Cl)c1nnc(-c3c(F)cccc3F)cc12` [Example 230], the IC50 turned out to be 55.2 nM.
`CC1(C)[C@H]2CC[C@]1(c1cncc(-n3ccnc3)n1)c1nnc(-c3c(F)cccc3F)cc12` [Example 231] had an IC50 of 6.3 nM.
For the compound `CC1(C)[C@H]2CC[C@]1(c1ccnc(-n3cnc(C(N)=O)n3)n1)c1nnc(-c3c(F)cccc3F)cc12` [Example 232], the IC50 is 27.9 nM.
The same measure for `CC1(C)[C@H]2CC[C@]1(c1nc(C#N)ncc1Cl)c1nnc(-c3c(F)cccc3F)cc12` [Example 233]: 13.8 nM.

In general, IC50 refers to the point on the concentration scale where inhibition reaches its midpoint. A higher IC50 goes with weaker potency in that assay.
